These results are taken from US20030053952A1, “Therapeutic tool for vascular diseases” (Yasumi UCHIDA, priority 2001, published 2003).

Entries after “also recorded” stand apart in the source; their conditions may differ.

For series [1], the system named is vascular progenitor cells. As to the kind of experiment: Implantation of dye-eluting stents into canine coronary artery (percentage stenosis, angioscopy, progenitor cell count). The format is in vivo, beagle dogs. To be noted: for Number of cells (250 × 250 μm^2), Adventitia / Number of cells (250 × 250 μm^2), Intima / Number of cells (250 × 250 μm^2), Media: dye-eluting stent, stented coronary segment, one month after implantation. The procedure: Beagle dogs of either sex was anesthetized with pentobarbital sodium (25 mg/kg, i.v.) and trachea was intubated for artificial respiration with air. The right side of the neck was incised longitudinally to expose right common carotid artery. An 8F sheath was introduced into the artery through which an 8F guiding catheter was introduced into the left coronary artery. After coronary angiography, a balloon catheter clinically used for PTCA was introduced to dilate anterior descending artery. Then, a balloon catheter with a dye-eluting stent on it was introduced into the dilated segment of left anterior descending artery and it was inflated at 9 atms to implant the stent. After recovery from anesthesia, the dogs were cared according the guideline of Jikei University School of Medicine. One month later, the dogs were anesthetized again and coronary angiography and angioscopy (Uchida Y: Coronary Angioscopy, Futura Publishing Co, NY, 2000) were performed to examine the changes in the stented coronary segment. […] Thereafter, the dogs were sacrificed with intracoronary pentobarbital and the heart was removed. The heart was fixed with 10% hormaldehyde solution for microscopic examination.
The coronary angiograms were used for calibration of the percentage stenosis, namely (diameter before stent implantation-minimum luminal diameter/diameter before stent implantation)×100 of the narrowest portion (minimum luminal diameter) in the stent and was compared. Student's t test was used for statistical analysis and when P<0.05, the value was considered significant.
The stented coronary segment was removed and cut into slice in 5 μm in thickness. The slices were stained with beta-actin antibody and the number of vascular progenitor cells per unit area was counted and was compared between the dye and control groups.

Series [2] concerns vascular progenitor cells. Briefly: Grafting of dye-eluting artificial grafts to canine common carotid artery (percentage stenosis, progenitor cell count). Format: in vivo, beagle dogs. To be noted: dye-eluting artificial graft, 3 months after grafting. From the text:
In anesthetized beagle dogs, the bilateral sides of the neck were incised to expose both right and left common carotid arteries. An 8 F sheath was introduced into the right femoral artery through which a 8 F catheter was introduced into the aortic arch for angiography of the carotid arteries. A dye-eluting artificial graft was sutured to the common carotid arteries in side to end fashion to make a shunt between the right and left common carotid arteries. Then, a segment of right carotid artery proximal to and that of left distal to anastomoses were ligatured. Thus, the blood drained from the left to the right common carotid artery. Similarly in other group, grafts coated with bionate or Sanpren without dye were sutured to the arteries as control group. The dogs were cared for 3 months according to the guideline and angiography was repeated. Percentage stenosis of the sutured portion was compared between the dye and control groups. After cardiac arrest as mentioned above, the grafts and arteries were removed and were used for microscopic examinations.

In series [3] the test system is vascular progenitor cells. As to the kind of experiment: Local delivery of dyes by porous balloon into balloon-injured coronary artery; count of migrated vascular progenitor cells. Format: in vivo, beagle dogs. Conditions: dogs. On the procedure:
Adult beagle dogs of either sexes weighing from 7 to 12 kg were anesthetized with pentobarbital sodium (25-30 mg/kg, i.v.) and the trachea was intubated for artificial respiration with air. The right side of the neck was longitudinally incised to expose the right common carotid artery and an 8 F sheath was introduced, through which an 8F guiding catheter was introduced into the left coronary ostium for angiography. After angiography, a balloon catheter (2.5 mm×20 mm) was introduced through the guiding catheter into the middle to distal segment of either the anterior descending or circumflex artery. Then, the balloon was inflated at 9 atms to
dilate the segment to induced disruption of the endothelium and internal elastic lamina. The balloon catheter was replaced by a porous balloon catheter (3 mm×20 mm) with multiple pores in the balloon (Clinical Supply Co, Gifu, Japan) for local delivery of dyes. Thereafter, 0.2 ml of 5% Evans blue saline solution was injected through the porous balloon into the dilated segment at 3 atms in 6 dogs and 0.5 ml of 5% Ethidium bromide saline solution
was injected similarly in 5 dogs. […] The dilated coronary segment and its surrounding tissues were removed and sliced, vascular progenitor cells were stained with beta-smooth muscle actin antibody (DAKO EPOS, Glostrup, Denmark) and the number of vascular progenitor cells/250×250 μm^2 was counted.

A short description of series [4]: Preliminary in vitro elution of dye from double-layer coated stent immersed in water. Format: physicochemical. The procedure: a) A soft polycarbonate urethane with risin bionate (Bionate 80A, Polimertech, USA) was used. Evans blue powder was dissolved in the bionate to make 20% Evans blue solution. A commercially available coronary stent (NIR stent, 3 mm×12 mm or Palmatz-Schatz stent, 3 mm×12 mm) was immersed into the solution for 10 min to form slowly eluting inner layer. Then, the stent was dried at room temperature. Evans blue powder was dissolved in distilled water to make 20% solution. The same stent was immersed into the solution for 10 min to make rapidly eluting outer layer. The stent was dried at room temperature. Then, the stent was sterilized with ethylene oxide gas. In the preliminary experiment in vitro, Evans blue began to elute from the outer layer immediately after and ceased to elute within 60 min after immersion into water.

With `CC[n+]1c(-c2ccccc2)c2cc(N)ccc2c2ccc(N)cc21` [Ethidium bromide], in series [1], the “Number of cells (250 × 250 μm^2), Adventitia” value is given as 21.3 ± 9.9 /250 × 250 μm^2; the “Number of cells (250 × 250 μm^2), Intima” value is listed as 8.3 ± 3.7 /250 × 250 μm^2; the “Number of cells (250 × 250 μm^2), Media” value is 9.6 ± 5.0 /250 × 250 μm^2. Besides, the “Number of cells (250 × 250 μm^2), vascular progenitor cells at the anastomosed portion of the common carotid artery” value in series [2] was 11.1 ± 3.1 /250 × 250 μm^2.
On to `Cc1cc(-c2ccc(/N=N/c3ccc4c(S(=O)(=O)O)cc(S(=O)(=O)O)c(N)c4c3O)c(C)c2)ccc1/N=N/c1ccc2c(S(=O)(=O)O)cc(S(=O)(=O)O)c(N)c2c1O` [Evans blue], for which the “Percentage stenosis of the stented coronary segments” value in series [1] (angiography, 4 weeks after implantation of dye-coated stents, vs stents without dye) is recorded as “significantly smaller”. The “Angioscopic appearance of stenosis of the stented coronary segment” value in series [1] (angioscopy, 4 weeks after stent implantation) is “stenosis was mild”. In series [1], the “Number of cells (250 × 250 μm^2), Adventitia” value is recorded as 17.0 ± 7.1 /250 × 250 μm^2; the “Number of cells (250 × 250 μm^2), Intima” value is listed as 7.1 ± 3.2 /250 × 250 μm^2; the “Number of cells (250 × 250 μm^2), Media” value is on record as 8.0 ± 4.0 /250 × 250 μm^2. The “Migration of circulating vascular progenitor cells into the injured coronary wall” value in series [3] is given as “no migration of the cells was observed; also recorded: inhibit migration”. In series [2], the “Number of cells (250 × 250 μm^2), vascular progenitor cells at the anastomosed portion of the common carotid artery” value is given as 13.4 ± 4.0 /250 × 250 μm^2. In addition, the “Time at which elution from the outer (rapidly eluting) layer ceased” value in series [4] (stent coated from 20% aqueous dye solution, after immersion into water) is recorded as ≤ 60 min. Also, in series [4] (stent coated from 20% dye in Bionate 80A, after immersion into water), the “Time at which elution from the inner (slowly eluting) layer began” value is listed as 60 min. Also, in series [4] (stent coated from 20% dye in Bionate 80A, immersion into water), the “Duration of elution from the inner (slowly eluting) layer” value is on record as “up to one month”.
